According to PMC7702303, “Biochemical and transcript level differences between the three human phosphofructokinases show optimisation of each isoform for specific metabolic niches” (Biochemical Journal, 2020):
Like-named read-outs stand apart in the source and are kept apart here. Values belong to the compound of their own block, whether it stands above or below them.

Tests used:
[1] = target: T1, recombinant human PFK-M (Homo sapiens, UniProt P08237); assay: ALDO-TIM-G3PDH enzyme-linked kinetic assay, PFK-M; assay type: biochemical; parameters: VmaxATP + modulator / VmaxF6P + modulator / K0.5ATP + modulator / K0.5F6P + modulator: unit not given here
T1 construct: made in house; host or cells: PFK-deficient Saccharomyces cerevisiae
T1 sequence (P08237 1-780): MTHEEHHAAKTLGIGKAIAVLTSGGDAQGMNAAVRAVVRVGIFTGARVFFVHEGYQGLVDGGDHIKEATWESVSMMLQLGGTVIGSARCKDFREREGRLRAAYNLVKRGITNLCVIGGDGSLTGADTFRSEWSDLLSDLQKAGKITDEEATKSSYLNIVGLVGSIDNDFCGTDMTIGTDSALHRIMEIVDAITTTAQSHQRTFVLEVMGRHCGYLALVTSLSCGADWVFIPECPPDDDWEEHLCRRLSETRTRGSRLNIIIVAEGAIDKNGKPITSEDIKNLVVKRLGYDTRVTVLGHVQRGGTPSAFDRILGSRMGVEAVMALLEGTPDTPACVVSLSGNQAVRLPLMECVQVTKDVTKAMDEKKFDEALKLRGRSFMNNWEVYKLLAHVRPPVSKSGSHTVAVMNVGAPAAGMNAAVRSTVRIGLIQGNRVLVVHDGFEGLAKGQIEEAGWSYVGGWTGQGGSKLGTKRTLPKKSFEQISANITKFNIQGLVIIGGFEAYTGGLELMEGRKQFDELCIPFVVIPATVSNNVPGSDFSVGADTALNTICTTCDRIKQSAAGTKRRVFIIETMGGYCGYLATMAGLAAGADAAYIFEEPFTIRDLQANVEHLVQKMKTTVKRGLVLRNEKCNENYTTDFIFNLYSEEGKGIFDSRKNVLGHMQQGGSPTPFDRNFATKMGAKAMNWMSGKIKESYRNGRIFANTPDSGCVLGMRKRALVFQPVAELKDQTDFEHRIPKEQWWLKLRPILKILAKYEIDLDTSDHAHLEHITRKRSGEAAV
Description: (§1) Recombinant human PFKs were expressed in PFK-deficient Saccharomyces cerevisiae and purified using the methods described previously, adapting earlier materials and protocols. Production of PFK intended for use in ATP titration experiments used 1 mM F6P as a tetramer stabilising agent in protein purification and storage buffers. Production of PFK intended for use in F6P titration experiments used 1 mM ATP as a tetramer stabilising agent in protein purification and storage buffers. Experimental details on the purification and characterisation procedures including figures showing SDS–PAGE gels of the highly pure PFKs used in the kinetic experiments described in this work have been recently published.
(§2) Assay buffer consisted of 50 mM TEA, 100 mM KCl, 10 mM MgCl2, 1 mM Tris(2-carboxyethyl)phosphine hydrochloride (TCEP), 10% glycerol, pH 7.4. Assay mix consisted of 5 units/ml glycerol-3-phosphate dehydrogenase (G3PDH, Sigma–Aldrich G6880), 2.5 units/ml aldolase (Sigma–Aldrich A2714), 25 units/ml triosephosphate isomerase (TIM, Sigma–Aldrich T6258), and 1.25 mM NADH. ATP and F6P were obtained from Sigma–Aldrich (A2383 and F3627, respectively). For ATP titrations, 38 µl of buffer or ligand were added to a clear non-binding 96-well plate. 40 µl of assay mix containing 10 mM F6P (final concentration 4 mM) was added and the plate was incubated at 25°C for 5 min. An amount of 2 µl of PFK isoforms were added to each well from stock concentrations of 150 µg/ml and the reaction was immediately started with 20 µl of ATP at varying concentrations. For F6P titrations, 30 µl of buffer or ligand was added to a clear non-binding 96-well plate. An amount of 40 µl of assay mix containing 1.25 mM ATP (final concentration 0.5 mM) was added and the plate was incubated at 25°C for 5 min. An amount of 5 µl of PFK isoforms were added to each well from stock concentrations of 200 µg/ml and the reaction was immediately started with 20 µl F6P at varying concentrations. All ligands and substrates (including ATP) were used at pH 7.4. All metabolites were obtained from Sigma–Aldrich unless otherwise stated. […] A SpectraMax M5 Multi-Mode Microplate Reader was used to measure A340nm at 13 s intervals for 10 min. All experiments were performed in triplicate unless otherwise stated.
(§3) Time-dependent absorbance change was converted into rate of NADH oxidation (µM s^−1) or specific activity (µmol min^−1 mg protein^−1) using the Beer-Lambert law (molar extinction coefficient of NADH 6.22 mM^−1 cm^−1). The initial rate of reaction was used to avoid accumulation of ADP, which activates PFK, interfering with the determination of kinetic properties. Non-linear regression analysis was performed on substrate titration data using GraphPad Prism 7, with curves fitted using allosteric sigmoidal models, enabling determination of steady-state kinetic values.

[2] = system: PFK; parameters: key to Effect (activator or inhibitor of PFK): “+” indicates activator; “-“ indicates inhibitor; conditions: cited from earlier work; for IC50 or AC50 (activator): unit inferred, ref Moreno-Sanchez et al., 2012; for Effect (activator or inhibitor of PFK): published literature, ref selected references in Supplementary Table 1
[3] = target: T2, recombinant human PFK-P (Homo sapiens, UniProt Q01813); assay: ALDO-TIM-G3PDH enzyme-linked kinetic assay, PFK-P; assay type: biochemical; conditions: for K0.5F6P + modulator / VmaxF6P + modulator: ATP 0.5mM; for K0.5F6P + modulator / VmaxF6P + modulator / K0.5ATP + modulator / VmaxATP + modulator: N=3, mean (SD); for K0.5ATP + modulator / VmaxATP + modulator: F6P 4mM
T2 construct: made in house; host or cells: PFK-deficient Saccharomyces cerevisiae
T2 sequence (Q01813 1-784): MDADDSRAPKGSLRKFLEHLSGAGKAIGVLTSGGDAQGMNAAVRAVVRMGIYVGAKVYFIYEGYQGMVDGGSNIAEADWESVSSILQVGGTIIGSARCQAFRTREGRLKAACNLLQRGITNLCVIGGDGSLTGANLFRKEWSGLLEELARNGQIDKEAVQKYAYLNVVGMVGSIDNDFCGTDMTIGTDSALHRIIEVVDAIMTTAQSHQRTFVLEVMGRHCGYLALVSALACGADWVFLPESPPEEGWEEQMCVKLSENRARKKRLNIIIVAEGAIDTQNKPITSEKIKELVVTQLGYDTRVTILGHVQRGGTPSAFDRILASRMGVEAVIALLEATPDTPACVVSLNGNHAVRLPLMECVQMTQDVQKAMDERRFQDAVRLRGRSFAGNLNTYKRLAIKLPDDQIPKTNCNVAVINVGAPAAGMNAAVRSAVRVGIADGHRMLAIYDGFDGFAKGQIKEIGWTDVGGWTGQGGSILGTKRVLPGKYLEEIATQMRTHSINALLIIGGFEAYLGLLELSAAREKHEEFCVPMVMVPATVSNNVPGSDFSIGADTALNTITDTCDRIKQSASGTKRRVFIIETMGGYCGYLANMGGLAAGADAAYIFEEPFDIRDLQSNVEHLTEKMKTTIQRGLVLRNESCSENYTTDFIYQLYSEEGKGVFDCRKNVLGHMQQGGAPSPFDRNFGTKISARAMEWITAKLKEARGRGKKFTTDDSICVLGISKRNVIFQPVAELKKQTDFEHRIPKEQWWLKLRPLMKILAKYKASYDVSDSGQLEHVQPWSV
Description: as §1, §2, §3

[4] = activation, read-out: AC50^F26BP
[5] = modulator 10 µM, ATP 0.5mM, N=3, mean (SD)
[6] = modulator 10 µM, F6P 4mM, N=3, mean (SD)

effect on PFK activity, in words [1]: strongly activated | allosteric constant K0.5^ATP+F26BP/K0.5^ATP ([1]; ATP titration): 1.10 | AC50 [1, 4]: 6.27 µM | change in kcat^ATP/K0.5^ATP compared with control PFK without modulator ([1]; modulator 10 µM): −7.4% | change in kcat^F6P/K0.5^F6P compared with control PFK without modulator ([1]; modulator 10 µM): +82% | K0.5F6P + modulator [1, 5]: 109.6 (5.3) | VmaxF6P + modulator [1, 5]: 5.81 (0.09) | K0.5ATP + modulator [1, 6]: 165.2 (9.2) | VmaxATP + modulator [1, 6]: 38.80 (0.75) | effect on PFK activity, in words [3]: strongly activated | allosteric constant K0.5^ATP+F26BP/K0.5^ATP ([3]; ATP titration): 0.54 | AC50 [3, 4]: 9.13 µM | change in kcat^ATP/K0.5^ATP compared with control PFK without modulator ([3]; modulator 10 µM): +88% | change in kcat^F6P/K0.5^F6P compared with control PFK without modulator ([3]; modulator 10 µM): +111% | K0.5F6P + modulator ([3]; modulator 10 µM): 2143 (132) M | VmaxF6P + modulator ([3]; modulator 10 µM): 2.45 (0.18) moles/min/mg | K0.5ATP + modulator ([3]; modulator 10 µM): 176.8 (33.8) M | VmaxATP + modulator ([3]; modulator 10 µM): 31.26 (1.96) moles/min/mg
SMILES: O=P(O)(O)OC[C@H]1O[C@@](CO)(OP(=O)(O)O)[C@@H](O)[C@@H]1O [F26BP, fructose 2,6-bisphosphate]
IC50 or AC50 (activator) ([2]; first of three values marked *): 0.53 µM | Effect (activator or inhibitor of PFK) [2]: + | IC50 or AC50 (activator) ([2]; second of three values marked *): 4.6 µM | IC50 or AC50 (activator) ([2]; third of three values marked *): 0.58 µM

change in kcat^ATP/K0.5^ATP compared with control PFK without modulator ([1]; modulator 1100 µM): −11% | change in kcat^F6P/K0.5^F6P compared with control PFK without modulator ([1]; modulator 1100 µM): −7% | change in kcat^ATP/K0.5^ATP compared with control PFK without modulator ([3]; modulator 1100 µM): −40% | change in kcat^F6P/K0.5^F6P compared with control PFK without modulator ([3]; modulator 1100 µM): +9% | K0.5F6P + modulator ([3]; modulator 1100 µM): 1378 (96) M | VmaxF6P + modulator ([3]; modulator 1100 µM): 0.81 (0.04) moles/min/mg | K0.5ATP + modulator ([3]; modulator 1100 µM): 352.3 (133.2) M | VmaxATP + modulator ([3]; modulator 1100 µM): 23.07 (2.40) moles/min/mg
SMILES: C=C(OP(=O)(O)O)C(=O)O [PEP, phosphoenolpyruvate]
Effect (activator or inhibitor of PFK) [2]: -
